Reference: patent publication US9145415B2, “Nitrogen-containing heterocyclic compound or salt thereof” (FUJIFILM Corporation, priority 2012, dated 2015)
Read-outs that look alike come from different tables or passages of the source.

Experiments:
[1] = target: T1, human FLT3 protein (FLT3 (WT)) (Homo sapiens, UniProt P36888); test: FLT3 inhibition test (FLT3 enzyme inhibition, time-resolved fluorescence of substrate peptide phosphorylation); format: biochemical; settings: read-out: FLT3 (WT) enzyme inhibition activity
T1 construct: human FLT3 protein (intracellular region, 564 to 993 aa); GST; purchased Carna Biosciences; host or cells: baculovirus expression system
T1 sequence (P36888 564-993): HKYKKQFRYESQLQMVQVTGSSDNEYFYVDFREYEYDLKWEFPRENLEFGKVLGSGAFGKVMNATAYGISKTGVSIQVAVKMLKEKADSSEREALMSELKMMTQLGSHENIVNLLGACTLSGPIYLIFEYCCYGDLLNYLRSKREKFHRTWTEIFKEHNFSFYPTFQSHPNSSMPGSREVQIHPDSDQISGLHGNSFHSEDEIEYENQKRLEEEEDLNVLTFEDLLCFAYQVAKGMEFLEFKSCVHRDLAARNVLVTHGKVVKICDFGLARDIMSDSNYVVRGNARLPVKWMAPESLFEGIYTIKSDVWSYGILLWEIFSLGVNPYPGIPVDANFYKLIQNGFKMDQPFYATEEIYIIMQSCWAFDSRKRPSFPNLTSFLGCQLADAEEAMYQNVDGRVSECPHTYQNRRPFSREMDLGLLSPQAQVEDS
Method in brief: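 Substrate peptide phosphorylation detected by time-resolved fluorescence after a 30 min kinase reaction at 25° C with 50 μM ATP (final). Beforehand, compound and FLT3 (WT, 1.2 μg) stood 15 min at 25° C in HEPES buffer pH 7.5 containing MgCl2, NaCl, BSA and DTT.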

MV4-11 cells = test: Leukemia cell proliferation inhibition test (ATPlite), MV4-11; format: cell-based; settings: Homo sapiens, read-out: MV4-11 cell proliferation inhibition effect
Method in brief: (§1)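 Molm-13 or MV4-11 cells in RPMI with 10% FBS and pen/strep, seeded at 10,000 cells per well, were exposed to serially diluted compound for 72 hours at 37° C, 5% CO2. Total cellular ATP was read by luciferase luminescence. GI50 came from sigmoid fits against the 0.1% DMSO control, in duplicate.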

Molm-13 cells = test: Leukemia cell proliferation inhibition test (ATPlite), Molm-13; format: cell-based; settings: Homo sapiens, read-out: MOLM13 cell proliferation inhibition effect
Method in brief: as §1

[2] = GST-fused human FLT3 (564 to 993 aa), ATP 50 μM
[3] = MV4-11, 72 h, MV4-11, 72 hours culture, ATPlite, GI50 per method
[4] = MOLM-13, 72 h, Molm-13, 72 hours culture, ATPlite, GI50 per method

CCCNc1nc(Nc2ccc(F)nc2)ncc1C#C[C@@H]1CCC[C@H](NC(=O)[C@H](C)N(C)C(=O)/C=C/CN(C)C)C1 [Compound 13-5]
IC50 [1, 2]: < 10 nM | IC50 (MV4-11 cells; [3]): < 10 nM | IC50 (Molm-13 cells; [4]): < 10 nM

Cc1ccc(Nc2nc(Nc3cccc(F)c3)ncc2C#CCCCNC(=O)[C@H](C)N(C)C(=O)/C=C/CN(C)C)cc1 [Compound 10-11]
IC50 [1, 2]: < 10 nM | IC50 (MV4-11 cells; [3]): < 10 nM | IC50 (Molm-13 cells; [4]): 10 to 100 nM

CCCNc1nc(Nc2ccc(F)cc2)ncc1C#CCCCNC(=O)CN(C)C(=O)/C=C/CN(C)C [Compound 7-8, (E)-4-(Dimethylamino)-N-(2-((5-(2-((4-fluorophenyl)amino)-4-(propylamino)pyrimidin-5-yl)-4-pentyn-1-yl)amino)-2-oxoethyl)-N-methyl-2-butenamide]
IC50 [1, 2]: < 10 nM | IC50 (MV4-11 cells; [3]): < 10 nM | IC50 (Molm-13 cells; [4]): < 10 nM

C=CC(=O)NCCNC(=O)c1cnc(NCCc2ccncc2)nc1NCCC [Compound 2-17]
IC50 [1, 2]: 10 to 100 nM | IC50 (MV4-11 cells; [3]): 100 to 1000 nM | IC50 (Molm-13 cells; [4]): 100 to 1000 nM

C[C@@H](C(=O)NCCCC#Cc1cnc(Nc2cccc(F)c2)nc1NCCN1CCOCC1)N(C)C(=O)/C=C/CN(C)C [Compound 10-6]
IC50 [1, 2]: < 10 nM | IC50 (MV4-11 cells; [3]): < 10 nM | IC50 (Molm-13 cells; [4]): < 10 nM

COCCCNc1nc(Nc2ccc(F)nc2)ncc1C#CCCCNC(=O)[C@H](C)N(C)C(=O)/C=C/CN(C)C [Compound 10-30]
IC50 [1, 2]: < 10 nM | IC50 (MV4-11 cells; [3]): < 10 nM | IC50 (Molm-13 cells; [4]): 10 to 100 nM

CCCNc1nc(Nc2ccc3nnccc3c2)ncc1C(=O)Nc1cccc(NC(=O)[C@H](C)N(C)C(=O)/C=C/CN(C)C)c1 [Compound 6-11, (S,E)-2-(Cinnolin-6-ylamino)-N-(3-(2-(4-(dimethylamino)-N-methyl-2-butenamido)propanamido)phenyl)-4-(propylamino)pyrimidine-5-carboxamide]
IC50 [1, 2]: < 10 nM | IC50 (MV4-11 cells; [3]): < 10 nM | IC50 (Molm-13 cells; [4]): < 10 nM

CCCNc1nc(Nc2ccc(C#N)cc2)ncc1C#CCCC(=O)NC(C)(C)CN(C)C(=O)/C=C/CN(C)C [Compound 8-16]
IC50 [1, 2]: 10 to 100 nM | IC50 (MV4-11 cells; [3]): 10 to 100 nM | IC50 (Molm-13 cells; [4]): 100 to 1000 nM

C=CC(=O)NCC(=O)Nc1cccc(NC(=O)c2cnc(Nc3ccc(C#N)cc3)nc2NCCC)c1 [Compound 6-2, N-(3-(2-(acrylylamido)acetamido)phenyl)-2-((4-cyanophenyl)amino)-4-(propylamino)pyrimidine-5-carboxamide]
IC50 [1, 2]: 10 to 100 nM | IC50 (MV4-11 cells; [3]): 10 to 100 nM | IC50 (Molm-13 cells; [4]): 100 to 1000 nM

CCCNc1nc(Nc2ccc(C(N)=O)cc2)ncc1C(=O)Nc1cccc(NC(=O)[C@H](C)N(C)C(=O)/C=C/C(C)N(C)C)c1 (stereo partly drawn) [Compound 4-14]
IC50 [1, 2]: < 10 nM | IC50 (MV4-11 cells; [3]): < 10 nM | IC50 (Molm-13 cells; [4]): < 10 nM

C[C@@H](C(=O)NCCCC#Cc1cnc(Nc2ccc(C#N)cc2)nc1-n1cccn1)N(C)C(=O)/C=C/CN(C)C [Compound 20-2, (S,E)-N-(1-((5-(2-((4-cyanophenyl)amino)-4-(1H-pyrazol-1-yl)pyrimidin-5-yl)-4-pentyn-1-yl)amino)-1-oxopropan-2-yl)-4-(dimethylamino)-N-methyl-2-butenamide]
IC50 [1, 2]: 10 to 100 nM | IC50 (MV4-11 cells; [3]): 10 to 100 nM | IC50 (Molm-13 cells; [4]): 10 to 100 nM

CCCNc1nc(Nc2ccc(C#N)cc2)ncc1C#CCCCNC(=O)[C@H]1CCCCN1C(=O)/C=C/CN(C)C [Compound 7-38]
IC50 [1, 2]: < 10 nM | IC50 (MV4-11 cells; [3]): 10 to 100 nM | IC50 (Molm-13 cells; [4]): 10 to 100 nM

CCCNc1nc(Nc2ccc(C(N)=O)cc2)ncc1C(=O)Nc1cccc(NC(=O)[C@H](C)N(C)C(=O)/C=C/CN(C(C)C)C(C)C)c1 [Compound 4-7]
IC50 [1, 2]: < 10 nM | IC50 (MV4-11 cells; [3]): < 10 nM | IC50 (Molm-13 cells; [4]): < 10 nM

CCCNc1nc(Nc2ccc(Cn3cncn3)cc2)ncc1C#CCCCNC(=O)CN(C)C(=O)/C=C/CN(C)C [Compound 12-11]
IC50 [1, 2]: 10 to 100 nM | IC50 (MV4-11 cells; [3]): 10 to 100 nM | IC50 (Molm-13 cells; [4]): 10 to 100 nM

CCCNc1nc(Nc2ccc(C#N)cc2)ncc1C#CCCCNC(=O)[C@@H]1C[C@@H](O)CN1C(=O)/C=C/CN(C)C [Compound 7-68]
IC50 [1, 2]: < 10 nM | IC50 (MV4-11 cells; [3]): < 10 nM | IC50 (Molm-13 cells; [4]): < 10 nM

C[C@@H](C(=O)NCCCC#Cc1cnc(Nc2ccnc(F)c2)nc1N1CCOCC1)N(C)C(=O)/C=C/CN(C)C [Compound 9-11]
IC50 [1, 2]: < 10 nM | IC50 (MV4-11 cells; [3]): < 10 nM | IC50 (Molm-13 cells; [4]): < 10 nM

CCCNc1nc(NCCc2ccncc2)ncc1C(=O)Nc1ccc(OC)c(NC(=O)CN(C)C(=O)/C=C/CN(C)C)c1 [Compound 1-10]
IC50 [1, 2]: < 10 nM | IC50 (MV4-11 cells; [3]): < 10 nM | IC50 (Molm-13 cells; [4]): < 10 nM

CCCNc1nc(Nc2cnc3c(cnn3CCOC)c2)ncc1C#CCCCNC(=O)[C@@H]1CCCN1C(=O)/C=C/CN(C)C [Compound 22-44, (S,E)-1-(4-(Dimethylamino)-2-butenoyl)-N-(5-(2-((1-(2-methoxyethyl)-1H-pyrazolo[3,4-b]pyridin-5-yl)amino)-4-(propylamino)pyrimidin-5-yl)-4-pentyn-1-yl)pyrrolidine-2-carboxamide]
IC50 ([1]; FLT3 (WT)): < 10 nM | IC50 (MV4-11 cells; MV4-11, MV4-11 cell): < 10 nM | IC50 (Molm-13 cells; MOLM-13, MOLM13 cell): < 10 nM

CCCNc1nc(Nc2ccc(C#N)cc2)ncc1C#CCCCNC(=O)[C@@H]1C[C@H](O)CN1C(=O)/C=C/CN(C)C [Compound 7-69]
IC50 [1, 2]: < 10 nM | IC50 (MV4-11 cells; [3]): < 10 nM | IC50 (Molm-13 cells; [4]): < 10 nM

CCCNc1nc(Nc2cccc(C#N)c2)ncc1C#C[C@H]1C[C@@H](NC(=O)[C@H](C)N(C)C(=O)/C=C/CN(C)C)C1 [Compound 13-17]
IC50 [1, 2]: < 10 nM | IC50 (MV4-11 cells; [3]): < 10 nM | IC50 (Molm-13 cells; [4]): < 10 nM

CCCNc1nc(Nc2ccc(F)nc2)ncc1C#CCCCNC(=O)[C@H](C)N(C)C(=O)/C=C/CN(C)C [Compound 7-21, (S,E)-4-(Dimethylamino)-N-(1-((5-(2-((6-fluoropyridin-3-yl)amino)-4-(propylamino)pyrimidin-5-yl)-4-pentyn-1-yl)amino)-1-oxopropan-2-yl)-N-methyl-2-butenamide]
IC50 [1, 2]: < 10 nM | IC50 (MV4-11 cells; [3]): < 10 nM | IC50 (Molm-13 cells; [4]): < 10 nM

COCCCNc1nc(Nc2ccnc(OC)c2)ncc1C#CCCCNC(=O)[C@@H]1C[C@H](O)CN1C(=O)/C=C/CN(C)C [Compound 9-33]
IC50 [1, 2]: < 10 nM | IC50 (MV4-11 cells; [3]): < 10 nM | IC50 (Molm-13 cells; [4]): < 10 nM

CCCNc1nc(Nc2ccc(C(N)=O)cc2)ncc1C(=O)Nc1cccc(NC2CCCN(C(=O)/C=C/CN(C)C)CC2)c1 (stereo not drawn) [Compound 3-21]
IC50 [1, 2]: < 10 nM | IC50 (MV4-11 cells; [3]): 100 to 1000 nM | IC50 (Molm-13 cells; [4]): 100 to 1000 nM

COc1ccc(Nc2nc(Nc3ccc(F)nc3)ncc2C#CCCCNC(=O)[C@H](C)N(C)C(=O)/C=C/CN(C)C)cc1 [Compound 7-22]
IC50 [1, 2]: < 10 nM | IC50 (MV4-11 cells; [3]): < 10 nM | IC50 (Molm-13 cells; [4]): < 10 nM

COc1ccc(Nc2nc(Nc3ccc(F)cc3)ncc2C#CCCCNC(=O)[C@H](C)N(C)C(=O)/C=C/CN(C)C)cn1 [Compound 10-40]
IC50 [1, 2]: < 10 nM | IC50 (MV4-11 cells; [3]): < 10 nM | IC50 (Molm-13 cells; [4]): < 10 nM

CCCNc1nc(Nc2ccc3sc(C)nc3c2)ncc1C#CCCCNC(=O)[C@H](C)N(C)C(=O)/C=C/CN(C)C [Compound 22-7]
IC50 ([1]; FLT3 (WT)): < 10 nM | IC50 (MV4-11 cells; MV4-11, MV4-11 cell): 10 to 100 nM | IC50 (Molm-13 cells; MOLM-13, MOLM13 cell): 10 to 100 nM

CCCNc1nc(Nc2ccc(C(N)=O)cc2)ncc1C(=O)Nc1cccc(NC(=O)[C@H](C)N(C)C(=O)/C=C/C(CC)N(C)C)c1 (stereo partly drawn) [Compound 4-15]
IC50 [1, 2]: < 10 nM | IC50 (MV4-11 cells; [3]): 10 to 100 nM | IC50 (Molm-13 cells; [4]): 100 to 1000 nM

C[C@@H](C(=O)NCCCC#Cc1cnc(Nc2ccc(C#N)cc2)nc1N1CCCC1)N(C)C(=O)/C=C/CN(C)C [Compound 9-1, (S,E)-N-(1-((5-(2-((4-cyanophenyl)amino)-4-(pyrrolidin-1-yl)pyrimidin-5-yl)-4-pentyn-1-yl)amino)-1-oxopropan-2-yl)-4-(dimethylamino)-N-methyl-2-butenamide]
IC50 [1, 2]: < 10 nM | IC50 (MV4-11 cells; [3]): < 10 nM | IC50 (Molm-13 cells; [4]): < 10 nM

COCCCNc1nc(Nc2ccc(F)nc2)ncc1C#CCCCNC(=O)CN(C)C(=O)/C=C/CN(C)C [Compound 10-31]
IC50 [1, 2]: < 10 nM | IC50 (MV4-11 cells; [3]): < 10 nM | IC50 (Molm-13 cells; [4]): 10 to 100 nM

CCCNc1nc(Nc2cccc(F)c2)ncc1-c1cc(CCNC(=O)[C@H](C)N(C)C(=O)/C=C/CN(C)C)on1 [Compound 17-3, (S,E)-4-(dimethylamino)-N-(1-((2-(3-(2-((3-fluorophenyl)amino)-4-(propylamino)pyrimidin-5-yl)isoxazol-5-yl)ethyl)amino)-1-oxopropan-2-yl)-N-methyl-2-butenamide]
IC50 [1, 2]: < 10 nM | IC50 (MV4-11 cells; [3]): 10 to 100 nM | IC50 (Molm-13 cells; [4]): 10 to 100 nM

C=CC(=O)NCCCNC(=O)c1cnc(NCCc2ccncc2)nc1NCCC [Compound 2-21]
IC50 [1, 2]: 10 to 100 nM | IC50 (MV4-11 cells; [3]): 10 to 100 nM | IC50 (Molm-13 cells; [4]): 10 to 100 nM

CCNc1nc(Nc2ccc3cn[nH]c3c2)ncc1C#CCCCNC(=O)[C@H](C)N(C)C(=O)/C=C/CN(C)C [Compound 10-64]
IC50 [1, 2]: < 10 nM | IC50 (MV4-11 cells; [3]): < 10 nM | IC50 (Molm-13 cells; [4]): < 10 nM
